Values joined by “and” are separate entries in the source; they are usually repeats but may differ in a detail not shown here. Equal entries are not always repeated. Where two headings read alike, the source gives them in different places.
Key:
KSP motor domain = biological target: T1, KSP motor domain (Homo sapiens, UniProt P52732); assay: KSP ATPase assay (IC50 / Ki); assay type: biochemical; conditions: for Ki: synthesized as single enantiomer
T1 construct: 100 nM KSP motor domain, 50 μg/ml microtubules
T1 sequence (P52732 18-359 limits assumed): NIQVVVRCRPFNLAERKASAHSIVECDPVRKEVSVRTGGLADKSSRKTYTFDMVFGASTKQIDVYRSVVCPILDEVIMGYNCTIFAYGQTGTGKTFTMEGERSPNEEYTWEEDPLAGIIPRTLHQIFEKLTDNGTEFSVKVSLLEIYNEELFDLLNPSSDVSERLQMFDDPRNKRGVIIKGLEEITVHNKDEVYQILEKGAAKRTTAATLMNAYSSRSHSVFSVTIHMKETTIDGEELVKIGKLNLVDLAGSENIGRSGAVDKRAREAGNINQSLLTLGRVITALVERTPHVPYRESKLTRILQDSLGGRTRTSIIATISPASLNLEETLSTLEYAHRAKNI
Experimental: One measure of inhibition is IC50, defined as the concentration of the composition at which the activity of KSP is decreased by fifty percent. Preferred compositions have IC50's of less than about 1 mM, with preferred embodiments having IC50's of less than about 100 μM, with more preferred embodiments having IC50's of less than about 10 μM, with particularly preferred embodiments having IC50's of less than about 1 μM, and especially preferred embodiments having IC50's of less than about 100 nM, and with the most preferred embodiments having IC50's of less than about 10 nM. Measurement of IC50 is done using an ATPase assay.
The Ki for a compound is determined from the IC50 based on three assumptions. First, only one compound molecule binds to the enzyme and there is no cooperativity. […] Third, the enzymatic rate of the enzyme-inhibitor complex is zero. The rate (i.e., compound concentration) data are fitted to the equation: […]
Where V is the observed rate, Vmax is the rate of the free enzyme, I0 is the inhibitor concentration, E0 is the enzyme concentration, and Kd is the dissociation constant of the enzyme-inhibitor complex.
Measurement of a composition's IC50 for KSP activity uses an ATPase assay. The following solutions are used: Solution 1 consists of 3 mM phosphoenolpyruvate potassium salt (Sigma P-7127), 2 mM ATP (Sigma A-3377), 1 mM IDTT (Sigma D-9779), 5 μM paclitaxel (Sigma T-7402), 10 ppm antifoam 289 (Sigma A-8436), 25 mM Pipes/KOH pH 6.8 (Sigma P6757), 2 mM MgC12 (VWR JT400301), and 1 mM EGTA (Sigma E3889). Solution 2 consists of 1 mM NADH (Sigma N8129), 0.2 mg/ml BSA (Sigma A7906), pyruvate kinase 7 U/ml, L-lactate dehydrogenase 10 U/ml (Sigma P0294), 100 nM KSP motor domain, 50 μg/ml microtubules, 1 mM DTT (Sigma D9779), 5 μM paclitaxel (Sigma T-7402), 10 ppm antifoam 289 (Sigma A-8436), 25 mM Pipes/KOH pH 6.8 (Sigma P6757), 2 mM MgC12 (VWR JT4003-01), and 1 mM EGTA (Sigma E3889). Serial dilutions (8-12 two-fold dilutions) of the composition are made in a 96-well microtiter plate (Corning Costar 3695) using Solution 1. Following serial dilution each well has 50 μl of Solution 1. The reaction is started by adding 50 μl of solution 2 to each well. This may be done with a multichannel pipettor either manually or with automated liquid handling devices. The microtiter plate is then transferred to a microplate absorbance reader and multiple absorbance readings at 340 nm are taken for each well in a kinetic mode. The observed rate of change, which is proportional to the ATPase rate, is then plotted as a function of the compound concentration. For a standard IC50 determination the data acquired is fit by the following four parameter equation using a nonlinear fitting program (e.g., Grafit 4): […]
Where y is the observed rate and x the compound concentration.

A549 cells = conditions: cited from earlier work
SKOV3 tumor xenograft [1] = assay: SKOV3 tumor xenograft in nude mice; assay type: in vivo; conditions: for Mice with Partial Tumor Shrinkage / Mortalities: 8 mice at start
Experimental: Female nude mice weighing approximately 20 g were implanted s.c. by trocar with fragments of human tumor carcinomas harvested from s.c. growing tumors in nude mice host. When the tumors were approximately 77 mg in size, the animals were pair matched into treatment and control groups. Each group contained 8 tumored mice, each of which was ear-tagged and followed individually throughout the experiment. Initial doses (10 mL/kg of a 66 mM Citrate buffer, pH 5.0/0.9% Saline/10% Tween 80 formulation of each test compound having a maximum concentration of 5 mg/mL) were given on Day 1 following pair matching, dosing at the levels and schedules indicated.
Mice were weighed twice weekly, and tumor measurements were taken by calipers twice weekly, starting on Day 1. These tumor measurements were converted to mg tumor weight by a well-known formula, W^2×L/2. The experiment was terminated when the control group tumor size reached an average of 1 gram. Upon termination, the mice were weighted, sacrificed and their tumors excised. Tumors were weighted and the mean treated tumor weight per group was calculated. In this model, the change in mean treated tumor weight/the change in mean control tumor weight×100% (ΔT/ΔC) was subtracted from 100% to give the tumor growth inhibition (TGI) for each group.

SKOV3 tumor xenograft [2] = assay: SKOV3 tumor xenograft in nude mice; assay type: in vivo
[3] = system: Skov-3 cells (human ovarian cancer); assay: FACS analysis of cell cycle stage by DNA content; assay type: cell-based; conditions: 24 hours; 10 nM paclitaxel, 400 nM quinazolinone 1, 200 nM quinazolinone 2
Experimental: FACS analysis to determine cell cycle stage by measuring DNA content was performed as follows. Skov-3 cells (human ovarian cancer) were split 1:10 for plating in 10 cm dishes and grown to subconfluence with RPMI 1640 medium containing 5% fetal bovine serum (FBS). The cells were then treated with either 10 nM paclitaxel, 400 nM quinazolinone 1, 200 nM quinazolinone 2, or 0.25% DMSO (vehicle for compounds) for 24 hours. Cells were then rinsed off the plates with PBS containing 5 mM EDTA, pelleted, washed once in PBS containing 1% FCS, and then fixed overnight in 85% ethanol at 4° C. Before analysis, the cells were pelleted, washed once, and stained in a solution of 10 μg propidium iodide and 250 μg of ribonuclease (RNAse) A per milliliter at 37° C. for half an hour. Flow cytometry analysis was performed on a Becton-Dickinson FACScan, and data from 10,000 cells per sample was analyzed with Modfit software.

[4] = R enantiomer, read-out: Ki (μM) R enantiomer
[5] = S enantiomer, read-out: Ki (μM) S enantiomer
[6] = enantiomer 1 from chiral chromatography, read-out: IC50 (μM) Enantiomer 1
[7] = enantiomer 2 from chiral chromatography, read-out: IC50 (μM) Enantiomer 2
[8] = racemate, read-out: IC50 (μM) Racemate
[9] = 80 mg/kg every 3 days × 4, i.v.
[10] = 50 mg/kg every 3 days × 4, i.v.
[11] = 20 mg/kg daily × 5, i.p., Tables A-D

`CC(c1nc2ccccc2c(=O)n1Cc1ccccc1)N(CCN)C(=O)c1ccc(Br)cc1` (centres unmarked) gave a Ki (KSP motor domain; [4]) of under 0.1 µM and a Ki (KSP motor domain; [5]) of 2 µM.

Work on `CCC(c1nc2cc(Cl)ccc2c(=O)n1Cc1ccccc1)N(CCN)C(=O)c1ccc(Br)cc1` (centres unmarked) yielded a Ki (KSP motor domain; [4]) of under 0.05 µM and a Ki (KSP motor domain; [5]) of over 0.5 µM.

Molecule `CCC(c1nc2cc(Cl)ccc2c(=O)n1Cc1ccccc1)N(CCCN)C(=O)c1ccc(C)cc1` (racemic) has an IC50 (KSP motor domain; R isomer, read-out: R Isomer IC50) of under 0.05 µM, an IC50 (KSP motor domain; S isomer, read-out: S Isomer IC50) of over 0.5 µM and an IC50 (KSP motor domain; racemic, read-out: Racemic I C50) of under 0.05 µM.

`CCC(c1nc2ccccc2c(=O)n1Cc1ccccc1)N(CCN(C)C)C(=O)c1ccc(Br)cc1` (single isomer, unassigned) showed an IC50 (KSP motor domain; [6]) of 0.28 µM, an IC50 (KSP motor domain; [7]) of 0.03 µM and an IC50 (KSP motor domain; [8]) of 0.06 µM.

With `CCC(c1nc2ccccc2c(=O)n1Cc1ccccc1)N(CCN(C)C)C(=O)c1cccc2ccccc12` (single isomer, unassigned) the IC50 (KSP motor domain; [6]) was over 40 µM, the IC50 (KSP motor domain; [7]) was 6.6 µM and the IC50 (KSP motor domain; [8]) was 12.7 µM.

`CC(c1nc2ccccc2c(=O)n1Cc1ccccc1)N(CCN(C)C)C(=O)c1ccc(Br)cc1` (single isomer, unassigned) showed an IC50 (KSP motor domain; [6]) of over 40 µM, an IC50 (KSP motor domain; [7]) of 1.3 µM and an IC50 (KSP motor domain; [8]) of 2.6 µM.

In the case of `O=c1[nH]cc(F)c(=O)[nH]1` [5-fluorouracil], the GI50 (A549 cells) is listed as 1000 nM.

For `CCC(c1nc2cc(Cl)ccc2c(=O)n1Cc1ccccc1)N(CCCN)Cc1ccc(Br)cc1` (centres unmarked) [Compound 1], the “Maximum Weight Loss” value (SKOV3 tumor xenograft [1]; [9]) was “None”, the “Tumor Growth Inhibition” value (SKOV3 tumor xenograft [1]; [9]) was 41.5% and the “Mice with Partial Tumor Shrinkage” value (SKOV3 tumor xenograft [1]; [9]) was 0. For the same molecule, the Mortalities (SKOV3 tumor xenograft [1]; [9]) was 1 and the “Final Tumor Weight (Mean ± SEM)” value (SKOV3 tumor xenograft [2]; [9]) was 554.3 ± 76.8 mg.

For `CCC(c1nc2cc(F)ccc2c(=O)n1Cc1ccccc1)N(CCCN)C(=O)c1ccc(C)cc1` (centres unmarked) [Compound 2], the “Final Tumor Weight (Mean ± SEM)” value (SKOV3 tumor xenograft [1]; [10]) was 340.8 ± 93.0 mg, the “Maximum Weight Loss” value (SKOV3 tumor xenograft [1]; [10]) was “None” and the “Tumor Growth Inhibition” value (SKOV3 tumor xenograft [1]; [10]) was 81.5%. The “Mice with Partial Tumor Shrinkage” value (SKOV3 tumor xenograft [1]; [10]) was 0 and the Mortalities (SKOV3 tumor xenograft [1]; [10]) was 0.

In the case of `CCC(c1nc2cc(Cl)ccc2c(=O)n1Cc1ccccc1)N(CC1CNC1)C(=O)c1ccc(C)cc1` (centres unmarked) [Compound 3], the “Maximum Weight Loss” value (SKOV3 tumor xenograft [1]; 60 mg/kg daily × 5, i.v.) is reported as 2.76%, the “Tumor Growth Inhibition” value (SKOV3 tumor xenograft [1]; 60 mg/kg daily × 5, i.v.) is reported as 48.3% and the “Mice with Partial Tumor Shrinkage” value (SKOV3 tumor xenograft [1]; 60 mg/kg daily × 5, i.v.) is reported as 0. The Mortalities (SKOV3 tumor xenograft [1]; 60 mg/kg daily × 5, i.v.) was 1 and the “Final Tumor Weight (Mean ± SEM)” value (SKOV3 tumor xenograft [2]; 60 mg/kg daily × 5, i.v.) was 806.1 ± 163.8 mg.

In the case of `CCC(c1nc2cc(Cl)ccc2c(=O)n1Cc1ccccc1)N(CCN)Cc1ccc(C)cc1` (centres unmarked) [Compound 4], the “Final Tumor Weight (Mean ± SEM)” value (SKOV3 tumor xenograft [1]; 4 mg/kg weekly × 3, i.v.) is reported as 726.9 ± 147.2 mg, the “Maximum Weight Loss” value (SKOV3 tumor xenograft [1]; 4 mg/kg weekly × 3, i.v.) is reported as 0.02% and the “Tumor Growth Inhibition” value (SKOV3 tumor xenograft [1]; 4 mg/kg weekly × 3, i.v.) is reported as 40.1%. The “Mice with Partial Tumor Shrinkage” value (SKOV3 tumor xenograft [1]; 4 mg/kg weekly × 3, i.v.) was 0 and the Mortalities (SKOV3 tumor xenograft [1]; 4 mg/kg weekly × 3, i.v.) was 1.

With `CCC(c1nc2cc(Cl)ccc2c(=O)n1Cc1ccccc1)N(CCCN(C)C)C(=O)c1ccc(Br)cc1` (centres unmarked) [Compound 5] the “Final Tumor Weight (Mean ± SEM)” value (SKOV3 tumor xenograft [1]; 25 mg/kg daily × 5, i.v.) was 405.6 ± 124.8 mg, the “Maximum Weight Loss” value (SKOV3 tumor xenograft [1]; 25 mg/kg daily × 5, i.v.) was “None” and the “Mean % Tumor Shrinkage” value (SKOV3 tumor xenograft [1]; 25 mg/kg daily × 5, i.v.) was 56.3%. For the same molecule, the “Tumor Growth Inhibition” value (SKOV3 tumor xenograft [1]; 25 mg/kg daily × 5, i.v.) was 71.0%, the “Mice with Partial Tumor Shrinkage” value (SKOV3 tumor xenograft [1]; 25 mg/kg daily × 5, i.v.) was 1 and the Mortalities (SKOV3 tumor xenograft [1]; 25 mg/kg daily × 5, i.v.) was 0.

In the case of `CC(=O)O[C@H]1C(=O)[C@@]2(C)[C@H]([C@H](OC(=O)c3ccccc3)[C@]3(O)C[C@H](OC(=O)[C@H](O)[C@@H](NC(=O)c4ccccc4)c4ccccc4)C(C)=C1C3(C)C)[C@]1(OC(C)=O)CO[C@@H]1C[C@@H]2O` [Taxol, paclitaxel, reference compound], the “shift of cell cycle stage (DNA content)” value [3] is reported as “caused a shift in the population of cells from a G0/G1 cell cycle stage (2n DNA content) to a G2/M cell cycle stage (4n DNA content)”, the “Maximum Weight Loss” value (SKOV3 tumor xenograft [1]; [11]) is reported as 16.5% and 7.49% and 12.26% and 8.77% and the “Mean % Tumor Shrinkage” value (SKOV3 tumor xenograft [1]; [11]) is reported as 27.9% and 43.5% and 44.4%. The “Tumor Growth Inhibition” value (SKOV3 tumor xenograft [1]; 20 mg/kg daily × 5, i.p., separate experiments Tables A-D) was 91.7% and 99.7% and 87.1% and 73.0% and the GI50 (A549 cells) was 4 nM.

In the case of `COc1cccc2c1C(=O)c1c(O)c3c(c(O)c1C2=O)C[C@@](O)(C(=O)CO)C[C@@H]3O[C@H]1C[C@H](N)[C@H](O)[C@H](C)O1` [doxorubicin], the GI50 (A549 cells) is given as 63 nM.

For `NC(=O)NO` [hydroxyurea], the GI50 (A549 cells) is listed as 500000 nM.

Reference: patent US8008311B2, “Methods and compostions utilizing quinazolinones” (Cytokinetics, Inc., priority 2003, dated 2011)
